# Measurements: patent US20240366813A1, “PEPTIDE-UREA DERIVATIVE, PHARMACEUTICAL COMPOSITION CONTAINING SAME AND APPLICATION THEREOF” (Bivision Pharmaceuticals, Inc., priority 0001, published 2024)
# Tested on: 22rv1 PSMA-expressing tumors
# Assay: SPECT imaging in 22rv1 tumor-bearing balb/c nude mice (effect example 10)
# Type: in vivo
# Conditions: about 7.4 MBq/mouse tail vein
# Description: About 4-5 weeks old (balb/c nude, Beijing Vital River) mice were subcutaneously inoculated with 5×10^6 cells of 22rv1 (in 50% Matrigel, Corning) on the right scapula of animals. When the tumor grew to a size of about 150-350 mm^3, after anesthesia with isoflurane, ^177Lu-PSMA-617, ^177Lu-E3, ^177Lu-E4, ^177Lu-E8, ^177Lu-E16, ^177Lu-E18, ^177Lu-E24 radiolabeled compounds were injected into the tail vein of mice (about 7.4 MBq/mouse, specific activity: 22423.82 KBq/μg). Subsequently, SPECT imaging was performed with a small animal SPECT-CT imaging system (U-SPECT+/CT, MI Labs) at 1 h, 5 h, 24 h, 48 h and 72 h, respectively. ^177Lu-PSMA-617 is shown in FIG. 9, ^177Lu-E3 is shown in FIG. 10, ^177Lu-E4 is shown in FIG. 11, ^177Lu-E8 is shown in FIG. 12, ^177Lu-E16 is shown in FIG. 13, ^177Lu-[…] is shown in FIG. 14, and ^177Lu-E24 is shown in FIG. 15. […] The main way of drug elimination is through the kidney.
smiles,measurement,value
O=C([O-])CN1CCN(CC(=O)[O-])CCN(CC(=O)N2CCc3cc(C(=O)NC(Cc4ccc5ccccc5c4)C(=O)NCCCCC(NC(=O)NC(CCC(=O)O)C(=O)O)C(=O)O)ccc3C2)CCN(CC(=O)[O-])CC1.[177Lu+3] (centres unmarked) [^177Lu-E3],specific absorption in PSMA-expressing tumors after 72 hours,high specific absorption
same,uptake of radioactivity in PSMA-expressing tumors compared with ^177Lu-PSMA-617,higher uptake of radioactivity
